Results on nine compounds are retold here after patent US11345697B1, “Crystalline berberine ascorbate salt, methods of preparation and applications thereof” (Beiture LLC, priority 2020, dated 2022).

How the values of data set [1] were obtained: 50 mg of crystalline berberine ascorbate Form A (from example 1) was suspended in 0.20 ml of water.
50 mg of crystalline berberine chloride dihydrate (from Sigma-Aldrich) was suspended in 10 ml of water. […] The solubility residue was isolated by filtration.

For data set [2] the following is noted: 25° C.; AAPS PharmSciTech, 2010, 11(3), 1466-1475; cited from earlier work.
The conditions of data set [3]: cited from earlier work.
The nature of data set [4]: Thermogravimetry analysis (TGA). The class given is physicochemical. Particulars: for TGA mass loss: heating from about 25° C. to about 100° C. On the procedure: TGA was performed on samples prepared according to standard methods using a Q SERIES™ Q5000 thermogravimetry analyzer available from TA Instruments INSTRUMENTS® (New Castle, Del.). A sample (approximately 5 mg) was placed into an aluminum sample pan and transferred to the TGA furnace. The instrument was purged with nitrogen at 50 mL/min and data collected between 25° C. and 300° C., using a dynamic heating rate of 10° C./minute. Thermal data was analyzed using standard software, e.g., Universal Analysis v.4.5A from TA INSTRUMENTS®.

Data set [5] is described as follows: Hygroscopicity / form stability versus relative humidity. The conditions noted are these: up to 70% relative humidity, without a form change. The class given is physicochemical.
This is another data set of the same source.

For the compound `COc1ccc2cc3[n+](cc2c1OC)CCc1cc2c(cc1-3)OCO2` [berberine chloride], in data set [1], the “solid form of solubility residue (powder X-ray pattern)” value is listed as “converted berberine chloride tetrahydrate” and the solubility in water result is “less than 5 g/L”. The “aqueous solubility (literature value)” value in data set [2] was 1960 ± 110 µg/mL. The loss of water result in data set [3] (elevated temperature or low humidity environment) is given as “more than 8%”. The uptake of water result in data set [3] (in water or high humidity environment, converts to tetrahydrate form) is reported as “about 8%”.

For `COc1ccc2cc3[n+](cc2c1OC)CCc1cc2c(cc1-3)OCO2` [crystalline berberine ascorbate Form A, berberine ascorbate], in data set [1], the “aqueous solubility, times higher than commercial berberine hydrochloride” value was “more than 50 times” and the solubility in water result is “more than 250 g/L”. In addition, the “weight loss in thermal study” value in data set [4] (heated to about 150° C.) was “no significant weight loss”. The same compound displayed a TGA mass loss in data set [4] of 0.4%. The hygroscopicity entry in data set [5] is “non-hygroscopic”.

In data set [4], `COc1ccc2c(c1OC)C(CC(=O)C(C)C)N1CCc3cc4c(cc3C1=C2)OCO4` (stereo not drawn) [berberine methyl isopropyl ketone adduct] yielded a TGA mass loss of 0.1%.

As to `COc1ccc2c(c1OC)C(CC(=O)c1ccccc1)N1CCc3cc4c(cc3C1=C2)OCO4` (stereo not drawn) [berberine methyl phenyl ketone adduct], in data set [4], the TGA mass loss came out at 0.3%.

With `COc1ccc2cc3[n+](cc2c1OC)CCc1cc2c(cc1-3)OCO2` [crystalline berberine ascorbate Form B, berberine ascorbate], in data set [4], the TGA mass loss worked out at 2.5%.

For the compound `COc1ccc2c(c1OC)C(C1CCCCC1=O)N1CCc3cc4c(cc3C1=C2)OCO4` (stereo not drawn) [berberine cyclohexanone adduct], in data set [4], the TGA mass loss was found to be 0.3%.

With `CCC(=O)CC1c2c(ccc(OC)c2OC)C=C2c3cc4c(cc3CCN21)OCO4` (stereo not drawn) [berberine methyl ethyl ketone adduct], the melting point is ~ 130 °C. For the same compound, in data set [4], the TGA mass loss is on record as 0.4%.

As for `COc1ccc2c(c1OC)C(CC(=O)CC(C)C)N1CCc3cc4c(cc3C1=C2)OCO4` (stereo not drawn) [berberine methyl isobutyl ketone adduct], the TGA mass loss in data set [4] turned out to be 0.3%.

As for `COc1ccc2c(c1OC)C(CC(C)=O)N1CCc3cc4c(cc3C1=C2)OCO4` (stereo not drawn) [crystalline berberine acetone adduct, berberine acetone adduct], the TGA mass loss in data set [4] stood at 0.3%.
